Source: US11497752B2, “Compounds and uses thereof” (Foghorn Therapeutics Inc., priority 2018, dated 2022)

Key:
BRM = BRM (Homo sapiens, UniProt P51531); test: ATPase catalytic activity of BRM (ADP-Glo in vitro biochemical assay)
BRG-1 = BRG-1 (Homo sapiens, UniProt P51532); test: ATPase catalytic activity of BRG-1 (ADP-Glo in vitro biochemical assay)
BRG-1, sequence (P51532 whole entry): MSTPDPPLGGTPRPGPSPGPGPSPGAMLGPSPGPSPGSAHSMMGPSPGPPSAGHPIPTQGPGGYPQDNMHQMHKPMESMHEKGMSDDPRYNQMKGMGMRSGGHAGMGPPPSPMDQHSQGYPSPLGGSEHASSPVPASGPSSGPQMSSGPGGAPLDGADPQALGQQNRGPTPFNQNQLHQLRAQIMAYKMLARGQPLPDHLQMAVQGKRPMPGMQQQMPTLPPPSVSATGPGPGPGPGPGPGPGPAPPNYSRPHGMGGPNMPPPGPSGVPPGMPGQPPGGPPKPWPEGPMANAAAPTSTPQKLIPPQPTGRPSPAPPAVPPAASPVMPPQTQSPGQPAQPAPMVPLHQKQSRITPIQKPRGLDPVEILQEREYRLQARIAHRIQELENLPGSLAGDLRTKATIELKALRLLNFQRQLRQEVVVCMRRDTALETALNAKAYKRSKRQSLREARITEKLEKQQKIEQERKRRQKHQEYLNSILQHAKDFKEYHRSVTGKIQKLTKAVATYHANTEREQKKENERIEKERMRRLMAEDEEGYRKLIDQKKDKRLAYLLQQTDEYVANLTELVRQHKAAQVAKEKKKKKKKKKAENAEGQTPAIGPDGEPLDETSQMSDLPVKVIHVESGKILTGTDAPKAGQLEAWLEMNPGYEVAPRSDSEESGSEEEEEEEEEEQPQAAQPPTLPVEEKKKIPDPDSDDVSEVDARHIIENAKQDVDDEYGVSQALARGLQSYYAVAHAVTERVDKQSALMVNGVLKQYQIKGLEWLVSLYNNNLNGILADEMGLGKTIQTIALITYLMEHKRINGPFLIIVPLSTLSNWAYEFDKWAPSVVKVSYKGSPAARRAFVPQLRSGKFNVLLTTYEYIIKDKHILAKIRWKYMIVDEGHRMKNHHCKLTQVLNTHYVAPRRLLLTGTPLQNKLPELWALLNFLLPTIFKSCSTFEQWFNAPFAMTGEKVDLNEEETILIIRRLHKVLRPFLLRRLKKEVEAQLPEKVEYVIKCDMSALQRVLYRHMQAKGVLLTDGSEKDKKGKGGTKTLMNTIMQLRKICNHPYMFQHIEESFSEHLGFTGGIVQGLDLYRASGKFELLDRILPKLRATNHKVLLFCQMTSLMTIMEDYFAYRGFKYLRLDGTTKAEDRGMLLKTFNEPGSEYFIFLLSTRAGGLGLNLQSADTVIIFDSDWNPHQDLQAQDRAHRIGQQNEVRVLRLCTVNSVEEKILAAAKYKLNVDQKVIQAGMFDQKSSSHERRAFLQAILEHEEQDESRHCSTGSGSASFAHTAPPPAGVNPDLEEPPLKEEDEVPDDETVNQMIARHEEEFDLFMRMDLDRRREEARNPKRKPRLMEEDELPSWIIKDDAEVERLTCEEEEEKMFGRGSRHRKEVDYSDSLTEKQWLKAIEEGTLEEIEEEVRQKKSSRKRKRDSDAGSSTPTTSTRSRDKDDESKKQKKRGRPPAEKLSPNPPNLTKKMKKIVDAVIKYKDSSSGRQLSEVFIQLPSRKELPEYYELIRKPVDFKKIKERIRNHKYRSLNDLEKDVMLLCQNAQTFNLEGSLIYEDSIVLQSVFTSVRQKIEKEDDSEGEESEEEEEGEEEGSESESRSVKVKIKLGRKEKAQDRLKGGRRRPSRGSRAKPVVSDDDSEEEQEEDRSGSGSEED

BRM, sequence (P51531 whole entry): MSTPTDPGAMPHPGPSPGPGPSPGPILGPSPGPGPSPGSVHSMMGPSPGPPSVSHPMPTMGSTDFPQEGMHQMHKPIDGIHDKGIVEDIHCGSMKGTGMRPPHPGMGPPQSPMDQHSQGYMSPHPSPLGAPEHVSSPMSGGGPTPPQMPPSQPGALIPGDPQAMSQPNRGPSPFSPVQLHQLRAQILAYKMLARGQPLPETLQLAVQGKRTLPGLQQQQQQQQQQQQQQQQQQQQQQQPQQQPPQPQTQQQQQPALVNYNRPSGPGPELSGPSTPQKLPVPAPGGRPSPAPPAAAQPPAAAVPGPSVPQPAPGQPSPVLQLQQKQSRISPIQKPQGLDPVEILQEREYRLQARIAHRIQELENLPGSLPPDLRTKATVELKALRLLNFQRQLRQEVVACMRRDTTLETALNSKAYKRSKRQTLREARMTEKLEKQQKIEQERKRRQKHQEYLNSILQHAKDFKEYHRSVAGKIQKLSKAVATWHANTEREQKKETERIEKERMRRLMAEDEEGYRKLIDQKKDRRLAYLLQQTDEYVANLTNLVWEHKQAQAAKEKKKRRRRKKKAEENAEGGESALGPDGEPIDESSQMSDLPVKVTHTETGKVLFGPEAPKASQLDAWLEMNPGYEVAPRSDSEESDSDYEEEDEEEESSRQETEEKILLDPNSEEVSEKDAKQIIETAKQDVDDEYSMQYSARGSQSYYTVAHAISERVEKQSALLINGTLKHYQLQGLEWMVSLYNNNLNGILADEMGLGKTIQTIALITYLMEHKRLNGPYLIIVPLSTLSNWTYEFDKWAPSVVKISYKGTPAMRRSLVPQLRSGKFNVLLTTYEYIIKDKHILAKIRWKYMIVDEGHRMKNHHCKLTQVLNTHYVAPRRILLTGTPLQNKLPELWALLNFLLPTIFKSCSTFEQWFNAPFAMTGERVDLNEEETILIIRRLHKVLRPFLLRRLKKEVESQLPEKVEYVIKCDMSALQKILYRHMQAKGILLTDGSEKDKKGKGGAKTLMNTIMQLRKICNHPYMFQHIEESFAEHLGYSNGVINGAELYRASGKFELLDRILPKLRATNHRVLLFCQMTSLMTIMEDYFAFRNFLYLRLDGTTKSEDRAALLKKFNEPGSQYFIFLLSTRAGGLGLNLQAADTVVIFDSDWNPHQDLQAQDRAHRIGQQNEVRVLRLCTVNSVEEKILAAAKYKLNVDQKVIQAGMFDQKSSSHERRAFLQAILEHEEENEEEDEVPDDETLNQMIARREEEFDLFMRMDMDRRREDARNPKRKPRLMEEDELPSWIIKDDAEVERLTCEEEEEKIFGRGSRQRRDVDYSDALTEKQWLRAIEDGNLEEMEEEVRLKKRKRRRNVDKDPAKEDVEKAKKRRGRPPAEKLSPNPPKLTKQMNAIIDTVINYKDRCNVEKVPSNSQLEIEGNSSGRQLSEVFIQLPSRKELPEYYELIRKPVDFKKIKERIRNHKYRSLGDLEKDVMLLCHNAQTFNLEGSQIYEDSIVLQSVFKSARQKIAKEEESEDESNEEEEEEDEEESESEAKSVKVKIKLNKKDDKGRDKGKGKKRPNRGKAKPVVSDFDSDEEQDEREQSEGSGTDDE

Row | SMILES | IC50 (BRM) | BRM Max % Inhibition (BRM; Table 6) | IC50 (BRG-1) | BRG1 Max % Inhibition (BRG-1; Table 6) | BRM Max % Inhibition (BRM; Table 5) | BRG1 Max % Inhibition (BRG-1; Table 5)
1 | CSCC[C@H](NC(=O)c1ccc(N)cc1)C(=O)Nc1nc(-c2cccc(-c3ccc(CN)cc3)c2)cs1 [Compound 118, (S)-4-amino-N-(1-((4-(4′-(aminomethyl)-[1,1′-biphenyl]-3-yl)thiazol-2-yl)amino)-4-(methylthio)-1-oxobutan-2-yl)benzamide] | 100 to 1000 nM | >90% | 1000 to 10000 nM | >90% |  | 
2 | Nc1ccc(C(=O)NCC(=O)Nc2nc(-c3cccc(N4CCC[C@H](O)C4)c3)cs2)cc1 [Compound 236, 4-amino-N-[2-[[4-[3-[(3S)-3-hydroxy-1-piperidyl]phenyl]thiazol-2-yl]amino]-2-oxo-ethyl]benzamide] | 100 to 1000 nM | >90% | 100 to 1000 nM | >90% |  | 
3 | CNS(=O)(=O)c1cccc(C(=O)NCC(=O)Nc2nc(-c3ccccc3)cs2)c1 [Compound 26, 3-(methylsulfamoyl)-N-[2-oxo-2-[(4-phenylthiazol-2-yl)amino]ethyl]benzamide] | > 10000 nM |  | > 10000 nM |  | >60% | <30%
4 | Cn1ccc(-c2cccc(-c3csc(NC(=O)CNC(=O)c4ccc(N)cc4)n3)c2)cc1=O [Compound 140, 4-amino-N-(2-((4-(3-(1-methyl-2-oxo-1,2-dihydropyridin-4-yl)phenyl)thiazol-2-yl)amino)-2-oxoethyl)benzamide] | 100 to 1000 nM | >95% | 100 to 1000 nM | >90% |  | 
5 | Nc1ccc(C(=O)NCC(=O)Nc2nc(-c3cccc(-c4ccnc(N5CCCCS5(=O)=O)c4)c3)cs2)cc1 [Compound 203, 4-amino-N-[2-[[4-[3-[2-(1,1-dioxothiazinan-2-yl)-4-pyridyl]phenyl]thiazol-2-yl]amino]-2-oxo-ethyl]benzamide] | 100 to 1000 nM | >80% | 100 to 1000 nM | >80% |  | 
6 | CSCC[C@H](NC(=O)c1cccc(CO)c1)C(=O)Nc1nc(-c2ccccc2)cs1 [Compound 84, 3-(hydroxymethyl)-N-[(1S)-3-methylsulfanyl-1-[(4-phenylthiazol-2-yl)carbamoyl]propyl]benzamide] | > 10000 nM |  | > 10000 nM |  | >80% | >80%
7 | COC(=O)Cn1cc(-c2cccc(-c3csc(NC(=O)CNC(=O)c4ccc(N)cc4)n3)c2)cn1 [Compound 180, methyl 2-(4-(3-(2-(2-(4-aminobenzamido)acetamido)thiazol-4-yl)phenyl)-1H-pyrazol-1-yl)acetate] | 100 to 1000 nM | >90% | 100 to 1000 nM | >95% |  | 
8 | COc1ccc(C(=O)N[C@@H](CCSC)C(=O)Nc2nc(-c3ccccc3)cs2)cc1 [Compound 67, 4-methoxy-N-[(1S)-3-methylsulfanyl-1-[(4-phenylthiazol-2-yl)carbamoyl]propyl]benzamide] | > 10000 nM |  | > 10000 nM |  | >70% | >70%
9 | Nc1ccc(C(=O)NCC(=O)Nc2nc(-c3ccc4[nH]ncc4c3)cs2)cc1 [Compound 192] | 100 to 1000 nM | >90% | 100 to 1000 nM | >90% |  | 
10 | Nc1ccc(C(=O)NCC(=O)Nc2nc(-c3cccc(C4CCCCO4)c3)cs2)cc1 (centres unmarked) [Compound 239, 4-amino-N-[2-oxo-2-[[4-(3-tetrahydropyran-2-ylphenyl)thiazol-2-yl]amino]ethyl]benzamide] | 100 to 1000 nM | >90% | 100 to 1000 nM | >80% |  | 
11 | CS(=O)(=O)c1cccc(C(=O)NCC(=O)Nc2nc(-c3cccc(-c4ccncc4)c3)cs2)c1 [Compound 89, 3-(methylsulfonyl)-N-(2-oxo-2-((4-(3-(pyridin-4-yl)phenyl)thiazol-2-yl)amino)ethyl)benzamide] | < 100 nM | >80% | 100 to 1000 nM | >80% |  | 
12 | NCC1CC=C(c2cccc(-c3csc(NC(=O)CNC(=O)c4ccc(N)cc4)n3)c2)CC1 (centres unmarked) [Compound 158, 4-amino-N-(2-((4-(4′-(aminomethyl)-2′,3′,4′,5′-tetrahydro-[1,1′-biphenyl]-3-yl)thiazol-2-yl)amino)-2-oxoethyl)benzamide] | 100 to 1000 nM | >90% | 100 to 1000 nM | >95% |  | 
13 | CC(C)S(=O)(=O)c1cccc(C(=O)NCC(=O)Nc2nc(-c3ccccc3)cs2)c1 [Compound 6, 3-(isopropylsulfonyl)-N-(2-oxo-2-((4-phenylthiazol-2-yl)amino)ethyl)benzamide] | 1000 to 10000 nM |  | > 10000 nM |  | >90% | >60%
14 | CN(C)S(=O)(=O)c1cccc(C(=O)NCC(=O)Nc2nc(-c3ccccc3C#N)cs2)c1 [Compound 27, N-(2-((4-(2-cyanophenyl)thiazol-2-yl)amino)-2-oxoethyl)-3-(N,N-dimethylsulfamoyl)benzamide] | > 10000 nM |  | > 10000 nM |  | >60% | >30%
15 | CC(C)c1csc(NC(=O)CNC(=O)c2cccc(S(=O)(=O)N(C)C)c2)n1 [Compound 35, 3-(dimethylsulfamoyl)-N-[2-[(4-isopropylthiazol-2-yl)amino]-2-oxoethyl]benzamide] | > 10000 nM |  | > 10000 nM |  | >95% | >90%
16 | CCC[C@H](NC(=O)c1cccc(S(=O)(=O)N(C)C)c1)C(=O)Nc1nc(-c2ccccc2)cs1 [Compound 17, 3-(dimethylsulfamoyl)-N-[(1S)-1-[(4-phenylthiazol-2-yl)carbamoyl]butyl]benzamide] | 1000 to 10000 nM |  | > 10000 nM |  | >80% | >60%
17 | CN(C)S(=O)(=O)c1cccc(C(=O)NCC(=O)Nc2nc(C3CCCCC3)cs2)c1 [Compound 34, N-[2-[(4-cyclohexylthiazol-2-yl)amino]-2-oxo-ethyl]-3-(dimethylsulfamoyl)benzamide] | > 10000 nM |  | > 10000 nM |  | >90% | >60%
18 | Nc1ccc(C(=O)NCC(=O)Nc2nc(-c3cccc(-c4cccc(CO)c4)c3)cs2)cc1 [Compound 154, 4-amino-N-(2-((4-(3′-(hydroxymethyl)-[1,1′-biphenyl]-3-yl)thiazol-2-yl)amino)-2-oxoethyl)benzamide] | < 100 nM | >95% | < 100 nM | >95% |  | 
19 | CS(=O)(=O)c1cccc(C(=O)NCC(=O)Nc2nc(-c3ccc4cc[nH]c(=O)c4c3)cs2)c1 [Compound 88, 3-(methylsulfonyl)-N-(2-oxo-2-((4-(1-oxo-1,2-dihydroisoquinolin-7-yl)thiazol-2-yl)amino)ethyl)benzamide] | 100 to 1000 nM | >95% | 1000 to 10000 nM | >95% |  | 
20 | CC(=O)NCc1cccc(-c2csc(NC(=O)CNC(=O)c3cccc(S(=O)(=O)N(C)C)c3)n2)c1 [Compound 5, N-[2-[[4-[3-(acetamidomethyl)phenyl]thiazol-2-yl]amino]-2-oxo-ethyl]-3-(dimethylsulfamoyl)benzamide] | > 10000 nM |  | > 10000 nM |  | >90% | >70%
